Among the test systems are SK-MEL-28 melanoma; TK-10 renal; T-47D breast; NCI-H226 lung; CCRF-CEM leukemia; HS 578T breast; HCT-116 colon; NCI-H522 lung; OVCAR-5 ovarian; K-562 leukemia.
Experiment in all cases: NCI-60 cell line screen, 48 h

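Method: 48-hour compound exposure of cells in 96-well plates, five concentrations, linear interpolation of endpoints. GI50 marks 50% less growth. Definition used: TGI = concentration required for complete inhibition of growth.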 Some results are limits rather than exact numbers.

On to `CC1(C)NCCC[C@]2(C)[C@H]3C=CC4=C5C[C@](C)(CO)CC[C@]5(C)CC[C@@]4(C)[C@]3(C)CC[C@@H]12`, for which the GI50 was 5.87 µM in the assay on SK-MEL-28 melanoma; 2.66 µM in the assay on TK-10 renal; 5.38 µM in the assay on T-47D breast; 4 µM in the assay with NCI-H226 lung; 3520 nM in the assay on CCRF-CEM leukemia; 3200 nM in the assay with HS 578T breast. Moreover, the GI50 in the assay on HCT-116 colon is 2730 nM; with NCI-H522 lung it was 2380 nM; in the assay on OVCAR-5 ovarian, 12.4 µM; with K-562 leukemia, 3.18 µM. Besides, the TGI in the assay with SK-MEL-28 melanoma came to 18.4 µM; in the assay on TK-10 renal, 7.15 µM; in the assay with T-47D breast it was 20.9 µM; with NCI-H226 lung it was 16.9 µM; in the assay with CCRF-CEM leukemia, 14.6 µM; with HS 578T breast it was 13.2 µM. In addition, the TGI in the assay on HCT-116 colon stood at 10.6 µM; with NCI-H522 lung, 7.31 µM; with OVCAR-5 ovarian, 25.3 µM; with K-562 leukemia it was 10.8 µM.
For `[N-]=[N+]=C(C(=O)OCC#CCOC(=O)C(=[N+]=[N-])S(=O)(=O)c1ccccc1)S(=O)(=O)c1ccccc1`, the TGI in the assay on SK-MEL-28 melanoma, with TK-10 renal, in the assay with T-47D breast, with NCI-H226 lung, with CCRF-CEM leukemia and in the assay on HS 578T breast was above 10 µM each time. The TGI in the assay on HCT-116 colon, in the assay on NCI-H522 lung, in the assay with OVCAR-5 ovarian and in the assay on K-562 leukemia was above 10 µM each time.
Take `COc1ccc2c(c1)nc(N)c1c3cc(OC)c(OC)cc3cn21`: the TGI in the assay with SK-MEL-28 melanoma is 19.9 µM; in the assay on TK-10 renal, 20.8 µM; in the assay on T-47D breast, 25.5 µM; in the assay with NCI-H226 lung, 16.8 µM; in the assay on CCRF-CEM leukemia, 11 µM; with HS 578T breast, 32.3 µM. Moreover, the values for the TGI in the assay with HCT-116 colon, in the assay on OVCAR-5 ovarian and with K-562 leukemia were 13.7 µM, 18.8 µM and 11.7 µM, respectively. Further, the GI50 with TK-10 renal was 3.48 µM; with T-47D breast it was 0.721 µM; with CCRF-CEM leukemia, 10.1 nM; with HS 578T breast, 159 nM; in the assay on HCT-116 colon, below 10 nM; in the assay with NCI-H522 lung, below 10 nM. Moreover, the GI50 was 0.0749 µM in the assay on OVCAR-5 ovarian and below 0.01 µM in the assay with K-562 leukemia.
Turning to `Cc1cc(C)c(O)c(CNCCCCCCNCc2cc(C)cc(C)c2O)c1`, the GI50 is 1.66 µM in the assay on SK-MEL-28 melanoma; 1.39 µM in the assay with TK-10 renal; 1.5 µM in the assay on T-47D breast; 1.83 µM in the assay with NCI-H226 lung; 2190 nM with CCRF-CEM leukemia; 1650 nM in the assay with HS 578T breast. The GI50 in the assay on HCT-116 colon was 1730 nM; in the assay on NCI-H522 lung, 1780 nM; in the assay with OVCAR-5 ovarian, 1.82 µM; in the assay on K-562 leukemia it was 1.61 µM. For the same compound, the TGI stood at 3.28 µM in the assay with SK-MEL-28 melanoma; 2.92 µM in the assay with TK-10 renal; 3.36 µM in the assay on T-47D breast; 3.72 µM in the assay on NCI-H226 lung; 5.72 µM in the assay on CCRF-CEM leukemia; 3.88 µM with HS 578T breast. For the same compound, the TGI came out at 3.43 µM in the assay with HCT-116 colon, 3.67 µM in the assay on NCI-H522 lung, 4.31 µM in the assay on OVCAR-5 ovarian and 3.55 µM in the assay on K-562 leukemia.
As for `CN(C)CCCN=C(N)N`, the TGI in the assay with SK-MEL-28 melanoma, in the assay on TK-10 renal, in the assay with T-47D breast, in the assay with NCI-H226 lung, in the assay on CCRF-CEM leukemia and in the assay with HS 578T breast was above 100 µM in each case. Further, the TGI in the assay on HCT-116 colon, in the assay with NCI-H522 lung, in the assay on OVCAR-5 ovarian and in the assay with K-562 leukemia was above 100 µM in each case.
For the compound `N#CC1=C(N)NC(=S)NC12Nc1ccccc1O2` (configuration not stated), the GI50 is 45.7 µM with SK-MEL-28 melanoma; 42.5 µM with TK-10 renal; 41.5 µM with T-47D breast; 30.5 µM in the assay with NCI-H226 lung; 61700 nM in the assay on CCRF-CEM leukemia; 19100 nM in the assay with HS 578T breast. Moreover, the GI50 with HCT-116 colon was 22500 nM; in the assay with NCI-H522 lung, 11500 nM; in the assay on OVCAR-5 ovarian it was 40.7 µM; in the assay on K-562 leukemia, 13.7 µM. Also, the TGI in the assay with SK-MEL-28 melanoma was above 100 µM; with TK-10 renal, above 100 µM; in the assay with T-47D breast, above 100 µM; in the assay on NCI-H226 lung it was above 100 µM; in the assay with CCRF-CEM leukemia, above 100 µM; with HS 578T breast it was 60.2 µM. Also, the TGI with HCT-116 colon was 85.2 µM; in the assay on NCI-H522 lung it was 43.1 µM; with OVCAR-5 ovarian, above 100 µM; with K-562 leukemia, above 100 µM.
In the case of `C[C@]12CC[C@H](O)CC1=CC[C@@H]1C2CC[C@]2(C)c3nn(-c4ccc(F)cc4)nc3CC12` (some centres not stated), the TGI in the assay with SK-MEL-28 melanoma, in the assay with TK-10 renal, in the assay on T-47D breast, in the assay with NCI-H226 lung, with CCRF-CEM leukemia and with HS 578T breast was above 100 µM each time. For the same compound, the TGI in the assay with HCT-116 colon, in the assay with NCI-H522 lung, with OVCAR-5 ovarian and with K-562 leukemia was above 100 µM each time.

For the origin of these results see PubChem BioAssay (NCI).
